Structures can show the parent of a compound that is named as a salt. Positions of bridges follow the written chain, without caps; N, C: chain ends. Non-standard residues stand in square brackets, D forms with d. Residues, ends and D or L forms follow the SMILES beside them. *: point of attachment. X1 = CC[C@H](C)CCCCC(=O)*; Dab = NCC[C@H](N)C(=O)O
Columns and labels:
enteric E. coli = test: Enumeration of E. coli in luminal intestinal content on UriSelect 4 agar during and after colistin treatment; assay type: in vivo, Escherichia coli
Text: (§1) This study was approved by the Royal Veterinary College ethics and welfare committee. One hundred Ross 308 broiler chicken (Gallus gallus domesticus) were obtained from an approved supplier and housed in the animal welfare barn (AWB) at the Royal Veterinary College. Poultry were group-housed and fed baby chick crumbs (Smallholder Range, Norfolk, UK), a feed free of coccidiostats and designed to feed from hatching to 6–8 weeks, and given free access to water for the duration of the study. At 13 days, six birds were separated and maintained as a control group for the course of the study with the remaining 94 birds constituting the study group. European Pharmacopeia-compliant Meiji Seika Pharma's colistin sulfate (ColiMeiji®, hereafter “colistin”) consisting of a 78.53% (“as is”) mixture of colistin A (polymyxin E1) and colistin B (polymyxin E2), was per certificate of analysis (CoA) supplied by Wyjolab (Chaillac, France). Potency of colistin (as reported by CoA) was 23,558 IU/mg, and dosing was calculated as equivalent colistin base. Colistin was administered via drinking water to the study group at a dose equal to 75,000 IU/kg/day over a period of 3 days. The volume of colistin stock solution (2,000,000 IU/ml) diluted per 3-L drinking bell (Poultry Drinker 3L, Farm & Country Supplies, Alton, Hampshire, UK) was based on the average bird weight and water consumption measured on the day prior to dosing. Actual dose received every 24 h was back calculated based on measured water consumption for that period and bird weights. Birds were housed in a 25-m^2 floor pen with access to 5 × 3-L drinking bells, refreshed every 24 h. Average relative humidity was 44.5% (range: 29–63%) and average temperature 24°C (range: 20–28°C). Birds were provided a 14-h photoperiod aligned with onset of dosing (0 h) at 07:00.
The study group was sampled at predetermined times pre-dose (0 h), during oral dosing (at 12, 36, and 54 h), at cessation of dosing (72 h), and after dosing (73, 74, 76, 80, 84, 96, 120, and 144 h from the onset of dosing). At each time point, eight birds were sacrificed, except at 12, 36, and 54 h where only six birds were sacrificed. After neck dislocation, cloacal swabs were immediately taken, and the whole small intestine was excised after placing three ligatures (one around the duodenum, one on the ileum just proximally to the cecal attachment, and one distally to include the large intestine). All samples were stored at 4°C for no more than 48 h prior to further analysis. […]
UriSelect 4™ agar (Bio-Rad, Watford, UK) plates were used for enumeration and isolation of E. coli from LIC. […] Bacterial counts in original LIC were back calculated based on the total number of colonies countable on UriSelect 4™ agar. […]

[1] = Colistin content in luminal intestinal content (LIC) by UHPLC-MS/MS, non-compartmental PK analysis; assay type: in vivo, broiler chicken (Gallus gallus domesticus)
Text: as §1
The study group was sampled at predetermined times pre-dose (0 h), during oral dosing (at 12, 36, and 54 h), at cessation of dosing (72 h), and after dosing (73, 74, 76, 80, 84, 96, 120, and 144 h from the onset of dosing). At each time point, eight birds were sacrificed, except at 12, 36, and 54 h where only six birds were sacrificed. After neck dislocation, cloacal swabs were immediately taken, and the whole small intestine was excised after placing three ligatures (one around the duodenum, one on the ileum just proximally to the cecal attachment, and one distally to include the large intestine). All samples were stored at 4°C for no more than 48 h prior to further analysis. All birds in the control group underwent cloacal sampling at matching time points.
Each intestinal specimen was individually processed with a new set of examination gloves and blades to avoid carry over or contamination. The ceca were separated from the small intestine by cutting off the ileum proximally to the ligature. The luminal intestinal content (LIC) was then evacuated through peristaltic massage of the small intestine in a proximal-to-distal direction. Extracted LIC was mixed to ensure a homogenous sample, and 200 mg (±2 mg) aliquots were separated for further testing. Parietal intestinal content (PIC) was collected following LIC; the intestine was inflated with air, straightened, and longitudinally incised with a scalpel blade no. 11. The opened intestine was flattened, and the blade was used to scrape the parietal lining of the intestine. Luminal cecal content (LCC) was extracted in a similar fashion following incision at one end. Aliquots for colistin quantification were stored at −80°C or at 4°C for bacterial enumeration and isolation.
Total colistin content was quantified using a novel ultra-high-performance liquid chromatography-tandem mass spectrometry (UHPLC-MS/MS) method. […]

[2] = during dosing, 75,000 IU/kg/day via drinking water, n = 6, median baseline 3.6 × 10^6 CFU/g
[3] = LIC, nominal dose 75,000 IU/kg/day, NCA sparse option, 6 to 8 birds per time point
[4] = nominal dose 75,000 IU/kg/day via drinking water, from partial AUC, NCA sparse option

CC[C@H](C)CCCCC(=O)N[C@@H](CCN)C(=O)N[C@H](C(=O)N[C@@H](CCN)C(=O)N[C@H]1CCNC(=O)[C@H]([C@@H](C)O)NC(=O)[C@H](CCN)NC(=O)[C@H](CCN)NC(=O)[C@H](CC(C)C)NC(=O)[C@@H](CC(C)C)NC(=O)[C@H](CCN)NC1=O)[C@@H](C)O [colistin, colistin sulfate] (X1-[Dab]T[Dab][Dab][Dab][dL]L[Dab][Dab]T; lactam 4-C)
median E. coli count in LIC at 96, 120 and 144 h (enteric E. coli; after dosing, to end of the experiment, n = 8 per time point): ~5 × 10^5 | median E. coli count in LIC at 36 h (enteric E. coli; [2]): 3.9 × 10^3 CFU/g | median E. coli count in LIC at 54 h (enteric E. coli; [2]): 1.56 × 10^4 CFU/g | log reduction in the number of E. coli (enteric E. coli; up to 36 h post-onset of colistin administration): > 3 log | Partial AUC, AUC0-24h (first day) [1, 3]: 54.1 mg·h/kg | Partial AUC, AUC24-48h (second day) [1, 3]: 75.5 mg·h/kg | Partial AUC, AUC48-72h (third day) [1, 3]: 112.6 mg·h/kg | tissue level at time at 72 h ([1]; Ross 308 broiler, luminal intestinal content (LIC), po, 75000 IU/kg/day, 75,000 IU/kg/day via drinking water for 72 h, 72 h, mean of n = 8 birds, read-out: mean colistin content in LIC at cessation of dosing): 4510 ng/g | mean colistin content in LIC, peak ([1]; broiler chickens, colistin sulfate 75,000 IU/kg/day via drinking water for 72 h, 54 h from onset of dosing, mean of n = 6 birds, UHPLC-MS/MS, LOQ 1.1 mg/kg): 5.09 mg/kg | Average colistin luminal intestinal content, 0-48 h (first and second day) [1, 4]: 2.70 mg/kg digesta | Average colistin luminal intestinal content, 24-48 h (second day) [1, 4]: 3.15 mg/kg digesta
